In ChEMBL document CHEMBL5108021, “Discovery of 3-pyrazolyl-substituted pyrazolo[1,5-a]pyrimidine derivatives as potent TRK inhibitors to overcome clinically acquired resistance” (Eur J Med Chem, 2022):

Experiments:
BaF3 [1] = experiment: animal or person; conditions: Mus musculus, BaF3, po, read-out: TGI
BaF3 [2] = experiment: Antitumor activity against mouse BaF3 cells expressing […]-wild type TRKA xenografted in BALB/c mouse assessed as inhibition of tumor growth at 30 mg/kg, po bid for 11 to 14 days by microcaliper analysis; type: functional; conditions: time 11-14 day, read-out: TGI

Row | Structure (SMILES) | inhibition in vivo at 100 mg/kg (BaF3 [1]) | inhibition in vivo at 30 mg/kg (BaF3 [2])
1 | C[C@@H]1CCc2ncc(F)cc2[C@H]2CCCN2c2ccn3ncc(c3n2)C(=O)N1 [SELITRECTINIB] | 64% | 
2 | O=C(Nc1cnn2ccc(N3CCC[C@@H]3c3cc(F)ccc3F)nc12)N1CC[C@H](O)C1 [LAROTRECTINIB] |  | 74%
